In patent publication US12527798B2, “Preservation of immune response during chemotherapy regimens” (Pharmacosmos Holding A/S, priority 2016, dated 2026):
Where two headings read alike, the source gives them in different places.

Legend:
MC38 tumor cells [1] = type: in vivo; conditions: dosing schedule not given, anti-PD-1 combination study
Protocol: For all xenograft studies, nine-week old female C57BL/6 mice (C57BL/6NCrl) were implanted with MC38 tumor cells and treatment was initiated when mean tumor volume was approximately 100 mm^3. Compound I was administered in combination with oxaliplatin and […] according to the Induction and Maintenance (IM) dosing schedule, which is shown in FIG. 3.
Briefly, Compound I (100 mg/kg) and oxaliplatin (10 mg/kg) were administered intraperitoneally (IP) once weekly for three doses and mouse […] (5 mg/kg, IP) was given twice weekly starting on Day 1 and continuing through the end of study.
(§1) Single, two, and three drug combinations were tested and Compound I was administered 30 minutes prior to chemotherapy treatment. Complete response (CR) and partial response (PR) were calculated using standard Charles River Laboratories (CRL; RTP, NC) criteria. Body weight (BW) and health were monitored, and tumor volume was measured twice weekly. The individual tumor volume endpoint was 1000 mm^3 or Day 100, whichever came first.

MC38 tumor cells [2] = type: in vivo; conditions: dosing schedule not given, anti-PD-L1 combination study
Protocol: (§2) Anti-tumor activity of Compound I in combination with PD-L1 (clone 10F.9G2) and oxaliplatin was evaluated in the MC38 syngeneic murine colon carcinoma model. For all xenograft studies, nine-week old female C57BL/6 mice (C57BL/6NCrl) were implanted with MC38 tumor cells and treatment was initiated when mean tumor volume was approximately 100 mm^3.
(§3) Briefly, Compound I (100 mg/kg) and oxaliplatin (10 mg/kg) were administered intraperitoneally (IP) once weekly for three doses and the checkpoint inhibitor administration was varied as depending on the dosing schedule. In the Induction (I) dosing schedule, mouse anti-PD-L1 (100 μg/animal, IP) was given twice weekly for two weeks starting on Day 1 and ending on Day 15. In the Maintenance (M) dosing schedule, mouse anti-PD-L1 (100 μg/animal, IP) was given twice weekly starting on Day 15 and continuing through the end of study. In the Induction+Maintenance (IM) dosing schedule, mouse anti-PD-L1 (100 μg/animal, IP) was given twice weekly starting on Day 1 and continuing through the end of study.
as §1, with “first. The arms of the study included the following: • 1) vehicle • 2) Compound I+anti-PD-L1 (clone 10F.9G2), IM dosing schedule • 3) Compound I+Oxaliplatin+anti-PD-L1 (clone 10F.9G2), IM dosing schedule • 4) Oxaliplatin+anti-mouse PD-L1 (clone 10F.9G2), M dosing schedule • 5) Compound I+oxaliplatin+anti-mouse PD-L1 (clone 10F.9G2), M dosing schedule • 6) oxaliplatin+anti-mouse PD-L1 (clone 10F.9G2), I dosing schedule • 7) Compound I+oxaliplatin+anti-mouse PD-L1 (clone 10F.9G2), I dosing schedule” for “first.”

MC38 tumor cells [3] = type: in vivo; conditions: interim data, dosing schedule not given
Protocol: as §2, with “mouse anti-PD-L1” for “PD-L1”, “10F.9G2),” for “10F.9G2)”, “5-flurouracil (5-FU)” for “oxaliplatin”
as §3, with “5-FU (75” for “oxaliplatin (10”, “doses. […]” for “doses and the checkpoint inhibitor administration was varied as depending on the dosing schedule.”
Single, two, and three drug combinations were tested and Compound I was administered minutes prior to chemotherapy treatment. Complete response (CR) and partial response (PR) were calculated using standard Charles River Laboratories (CRL; RTP, NC) criteria. Body weight (BW) and health were monitored, and tumor volume was measured twice weekly. The individual tumor volume endpoint was 1000 mm^3 or Day 100, whichever came first. The arms of the study included the following: • 1) vehicle • 2) 5-FU+anti-PD-L1 (clone 10F.9G2), IM dosing schedule • 3) Compound I+5-FU+anti-PD-L1 (clone 10F.9G2), IM dosing schedule • 4) 5-FU+anti-mouse PD-L1 (clone 10F.9G2), M dosing schedule • 5) Compound I+5-FU+anti-mouse PD-L1 (clone 10F.9G2), M dosing schedule • 6) 5-FU+anti-mouse PD-L1 (clone 10F.9G2), I dosing schedule • 7) Compound I+5-FU+anti-mouse PD-L1 (clone 10F.9G2), I dosing schedule

intra-tumor immune cells = test: EdU incorporation in intra-tumor immune cell populations of MC38 tumor-bearing mice (Example 10); type: in vivo, C57BL/6 mice; conditions: one dose 100 mg/kg IP; EdU 6 to 48 hours after treatment; FIGS. 21, 22
Protocol: MC38 tumor-bearing C57BL/6 mice were treated with one dose of Compound I (100 mg/kg, IP), followed by in vivo EdU (5-ethynyl-2′-deoxyuridine, 200 μg/mouse, IP) incorporation 6 to 48 hours after treatment with Compound I. Eighteen hours after EdU dosing, mice were euthanized and tumors were harvested for analysis. Tumors were processed to single-cell suspensions, followed by depletion of dead cells and enrichment of CD45+ immune cells prior to antibody labeling for various lymphoid and myeloid immune cell populations defined as follows: CD8+ T cells (CD4−CD8+), CD4+ T cells (CD4+CD8−Foxp3−), Tregs (CD4+CD8−Foxp3+), NK (CD3−NK1.1+), monocytic myeloid derived suppressor cells (mMDSCs, CD11b+Ly6C+Ly6G−), granulocytic myeloid derived suppressor cells (gMDSCs, CD11b+Ly6C+Ly6G+), and macrophages (CD11b+Ly6C−Ly6G−). After cell surface staining, cell samples were fixed and EdU incorporation was detected by click chemistry followed by flow cytometric analysis. Inhibition of proliferation is represented as the (% EdU+ in Compound I treated)/(% EdU+ in vehicle treated)×100 for each cell population at each time point.

CDK4/6-Rb pathway = test: Phospho-Rb in purified Tregs cultured ex vivo, flow cytometry (Example 9); type: cell-based, C57BL/6 mice; conditions: 0, 250 or 1000 nM, 48 hours; FIG. 19
Protocol: (§4) CD4+CD25+ Tregs were purified from spleens of C57BL/6 mice using a two-step magnetic bead separation process-depletion of all non-CD4+ cells followed by positive selection of CD25+ cells. Purified Tregs were cultured ex-vivo with […] antibodies and IL-2 for 48 hours with either 0, 250, or 1000 nM trilaciclib. […] The percentage of phospho-Rb+ Tregs was defined as phospho-Rb+ cells in the CD4+Foxp3+ population. […] CFSE-labeled splenocytes were stimulated ex-vivo with anti-CD3/CD28 antibodies for 72 hours in the presence or absence of Tregs treated with Compound I. Cells were stained with anti-CD4 and CD8 antibodies, and T cell proliferation was assessed by the dilution of the mean fluorescence intensity of CFSE in CD4-CD8+ T cells by flow cytometric analysis. Percent proliferation was calculated as (mean CFSE intensity of CD8+ T cells stimulated in the absence of Tregs)/(mean CFSE intensity of CD8+ T cells stimulated in the presence of Tregs)×100, the results of which are shown in FIG. 19 and FIG. 20.

MC38 tumor = MC38 tumor volume under continuous daily dosing of Compound I with or without anti-PD-L1 (Example 16); type: in vivo, mice; conditions: continuous Compound I (daily x 28 days, IP, 100 mg/kg) added to anti-PD-L1; FIG. 38
Protocol: MC38 tumor-bearing mice were treated with Compound I (daily×28 days, IP, 100 mg/kg) with or without anti-PD-L1 (biweekly×2 weeks, IP, 100 ug/animal) and tumor volume was evaluated.

CD8+ T cells = test: CFSE proliferation of CD8+ T cells in the presence of Tregs treated with Compound I (Example 9); type: cell-based, C57BL/6 mice; conditions: splenocytes stimulated with anti-CD3/CD28 72 hours; FIG. 20
Protocol: as §4

splenocytes = test: Ex vivo splenocyte stimulation, IL-2 and IFNγ ELISA after 5-FU treatment (Example 6); type: in vivo, C57BL/6 mice; conditions: Compound I 100 mg/kg added to 5-FU 50 mg/kg, 3 daily IP doses, splenocytes stimulated with anti-CD3/CD28 72 h
Protocol: C57BL/6 mice were treated with 3 daily IP doses of 50 mg/kg 5-FU±100 mg/kg Compound I. Two and seven days after the final treatment, mice were euthanized and spleens were harvested. Splenocytes were stimulated ex vivo with anti-CD3/CD28 antibodies for 72 hours and interferon gamma (IFNγ) or interleukin-2 (IL-2) levels were measured via ELISA (R&D systems). After the ex-vivo splenocyte stimulation in C57BL/6 mice, Compound I enhanced IL-2 production (FIG. 12) and preserved IFNγ production (FIG. 13) after 5-FU treatment. A potential mechanism by which Compound I enhances anti-tumor activity includes the preservation of T lymphocyte function from chemotherapy.

CD4+ and CD8+ T cells = test: T cell activation (CD69, IL-2) in splenocytes of MC38 tumor-bearing mice (Example 8); type: in vivo; conditions: Compound I added to oxaliplatin and anti-PD-L1, four days; spleen; FIGS. 16, 17
Text: Twenty-four hours after the final dose, the mice were euthanized and spleens were harvested and processed to single-cell suspensions for T-cell analysis. Splenocytes were stained with anti-CD4, CD8, and CD69 antibodies for flow cytometric analysis. The percentage of activated CD4+ T cells was defined as the proportion of CD69+ cells within the CD8−CD4+ T cell fraction, while the percentage of activated CD8+ T cells was defined as the proportion of CD69+ cells within the CD8+CD4− T cell fraction, the results of which are shown in FIGS. 16 and 17. Additionally, splenocytes were also stimulated ex-vivo with anti-CD3/CD28 antibodies for 72 hours and were stained with anti-CD4, CD8, and IL-2 antibodies for flow cytometric analysis. The percentage of IL-2+ cells was defined as the proportion of IL-2+ cells within the […] T cell fraction, the results of which are shown in FIG. 18.

MC38 tumors [4] = test: Whole-tumor interferon-gamma (Ifng) expression, PanCancer Immune Profiling Panel (Example 13); type: in vivo, C57BL/6 mice; conditions: Compound I added to oxaliplatin or oxaliplatin/anti-PD-L1 combinations, eight days; FIGS. 28-31
Protocol: Twenty-four hours after the final dose, mice were euthanized and tumors were harvested for analysis. Gene expression analysis was performed on whole tumors using the PanCancer Immune Profiling Panel. The normalized and Log 2 transformed expression level of interferon-gamma (Ifng) is plotted for each pair of treatment groups with or without Compound I. T=Compound I, O=oxaliplatin, P=anti-PD-L1.

CT26 tumor = CT26 tumor growth in mice (Example 7); type: in vivo; conditions: Compound I added to an anti-PD-L1/oxaliplatin regimen
Protocol: CT26 bearing mice are treated with Compound I (IP, 100 mg/kg, weekly×3), anti-PD-L1 (IP, 5 mg/animal, biweekly to end), and/or oxaliplatin (IP, 10 mg/kg, weekly×3) and tumors were evaluated.

MC38 tumors [5] = test: Whole-tumor gene expression, PanCancer Immune Profiling Panel, two weekly doses (Examples 12 and 14); type: in vivo, C57BL/6 mice; conditions: two weekly doses 100 mg/kg IP, p <0.05, absolute fold change >1.3
Protocol: MC38 tumor-bearing C57BL/6 mice were treated with two weekly doses of Compound I (100 mg/kg, IP). One day after the last dose, mice were euthanized and tumors were harvested for analysis. Gene expression analysis was performed on whole tumors using the PanCancer Immune Profiling Panel. Normalized and Log 2 transformed expression values were used for identification of differentially expressed genes, defined using a p-value cutoff of <0.05 and absolute fold change >1.3.

| Compound | Complete Response % (MC38 tumor cells [1]) [%] | Objective Response Rate % (MC38 tumor cells [1]) [%] | Overall Survival (OS) (MC38 tumor cells [1]) | Partial Response % (MC38 tumor cells [1]) [%] | Complete Response % (MC38 tumor cells [2]) [%] | Objective Response Rate % (MC38 tumor cells [2]) [%] | Overall Survival (OS) (MC38 tumor cells [2]) | Partial Response % (MC38 tumor cells [2]) [%] | further results |
| --- | --- | --- | --- | --- | --- | --- | --- | --- | --- |
| O=C1[O][Pt]2([NH][C@@H]3CCCC[C@H]3[NH]2)[O]C1=O [Oxaliplatin, oxaliplatin, reference compound] | 10 | 10 | 31 | 0 | 22 | 22 | 36 | 0 |  |
| O=c1[nH]cc(F)c(=O)[nH]1 [Compound 5-FU, 5-Fluorouracil] |  |  |  |  |  |  |  |  | Overall Survival @ D29% (MC38 tumor cells [3]; Day 29): 30%; Complete Response % (MC38 tumor cells [3]; MC38): 0%; Objective Response Rate % (MC38 tumor cells [3]; MC38): 0%; Partial Response % (MC38 tumor cells [3]; MC38): 0%; Progressive Disease % (MC38 tumor cells [3]; percent of tumors that have doubled in size by Day 29): 100% |
| CN1CCN(c2ccc(Nc3ncc4cc5n(c4n3)C3(CCCCC3)CNC5=O)nc2)CC1 [Compound I, trilaciclib] | 10 | 20 | 22 | 10 | 0 | 0 | 19 | 0 | proliferation of intra-tumor lymphoid and myeloid immune cell populations (EdU) (intra-tumor immune cells): transient and reversible inhibition of cell proliferation; phospho-Rb level in Tregs (CDK4/6-Rb pathway): dose-dependent down-regulation; anti-tumor effect (tumor volume) (MC38 tumor): does not enhance the anti-tumor effect and, in fact, causes some attenuation; proliferation of CD8+ T cells in the presence of Tregs treated with Compound I (CD8+ T cells): dose-dependent increase in proliferation; IL-2 production (splenocytes; FIG. 12): enhanced; IFNγ production (splenocytes; FIG. 13): preserved; T cell activation (CD69+ CD4+ and CD8+ T cells) (CD4+ and CD8+ T cells): Enhanced T Cell Activation; interferon-gamma gene expression in tumor (MC38 tumors [4]): Upregulation; anti-tumor efficacy (CT26 tumor): consistently enhanced anti-tumor efficacy; expression of genes Il2, Il18, and Lta (positive regulation of interferon-gamma production) (MC38 tumors [5]; FIGS. 25-27): Up-regulated; expression of genes Cdkn1a, Cxcl1, Il6, Il10, Il19, Ptgs2 (reactive oxygen species metabolism) (MC38 tumors [5]; FIGS. 32-37): Down-regulated |
